Biological target: Glutamate receptor ionotropic, NMDA 1 (Rattus norvegicus, UniProt P35439)
Assay: Ability to displace [3H]TCP from high affinity PCP N-methyl-D-aspartate glutamate receptor in rat brain homogenates in vitro was determined
Type: tissue-based

Compound	Ki
c1ccc2c(c1)CC1NC2c2ccccc21 (configuration not stated)	0.12 µM
IC12NC(Cc3ccccc31)c1ccccc12 (configuration not stated)	0.43 µM
BrCC12NC(Cc3ccccc31)c1ccccc12 (configuration not stated)	0.033 µM
COCC12NC(Cc3ccccc31)c1ccccc12 (configuration not stated)	0.3 µM
NCCC12NC(Cc3ccccc31)c1ccccc12 (configuration not stated)	0.02 µM
ClCC12NC(Cc3ccccc31)c1ccccc12 (configuration not stated)	0.012 µM
NC(=O)C12NC(Cc3ccccc31)c1ccccc12 (configuration not stated)	11.3 µM
CCCC12NC(Cc3ccccc31)c1ccccc12 (configuration not stated)	1.1 µM
NCC12NC(Cc3ccccc31)c1ccccc12 (configuration not stated)	0.117 µM
CCCCCCC12NC(Cc3ccccc31)c1ccccc12 (configuration not stated)	0.98 µM
N#CCC12NC(Cc3ccccc31)c1ccccc12 (configuration not stated)	0.967 µM
CCC12NC(Cc3ccccc31)c1ccccc12 (configuration not stated)	0.012 µM
O=C(O)C12NC(Cc3ccccc31)c1ccccc12 (configuration not stated)	32.3 µM
OCC12NC(Cc3ccccc31)c1ccccc12 (configuration not stated)	0.04 µM
c1ccc(COCC23NC(Cc4ccccc42)c2ccccc23)cc1 (configuration not stated)	10 µM
C=CCC12NC(Cc3ccccc31)c1ccccc12 (configuration not stated)	0.07 µM
CCCCCCCCCCC12NC(Cc3ccccc31)c1ccccc12 (configuration not stated)	21.6 µM
